In ChEMBL document CHEMBL1201862, “PubChem BioAssay data set” (2004):
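The compound was tested at five concentrations on cells cultured in 96-well plates, with a 48-hour exposure period. At the GI50, growth is halved.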 The source made the active and inactive calls. No stated cut-off is given here; in the data, active = GI50 up to about 1.1 µM and inactive = higher.

What was measured:
Experiment in all cases: NCI anticancer screen, dose series, 48 h
TK-10 = tested on: TK-10
SF-295 = tested on: SF-295
UACC-257 = tested on: UACC-257
M14 = tested on: M14
MOLT-4 = tested on: MOLT-4
DMS-114 = tested on: DMS-114
SK-OV-3 = tested on: SK-OV-3
SK-MEL-28 = tested on: SK-MEL-28
IGROV-1 = tested on: IGROV-1
LOX IMVI = tested on: LOX IMVI
SK-MEL-5 = tested on: SK-MEL-5
HT-29 = tested on: HT-29
SF-539 = tested on: SF-539
EKVX = tested on: EKVX
SNB-75 = tested on: SNB-75
K562 = tested on: K562
NCI-H23 = tested on: NCI-H23
NCI-H226 = tested on: NCI-H226
SW-620 = tested on: SW-620
SNB-19 = tested on: SNB-19
CAKI-1 = tested on: CAKI-1
OVCAR-8 = tested on: OVCAR-8
SN12C = tested on: SN12C
RXF 393 = tested on: RXF 393
KM12 = tested on: KM12
SF-268 = tested on: SF-268
M19-MEL = tested on: M19-MEL
UACC-62 = tested on: UACC-62
CCRF-CEM = tested on: CCRF-CEM
COLO 205 = tested on: COLO 205
OVCAR-3 = tested on: OVCAR-3
HL-60 = tested on: HL-60
DMS-273 = tested on: DMS-273
A549 = tested on: A549
NCI-H522 = tested on: NCI-H522
RPMI-8226 = tested on: RPMI-8226
UO-31 = tested on: UO-31
HCT-15 = tested on: HCT-15
Malme-3M = tested on: Malme-3M
MDA-MB-231 = tested on: MDA-MB-231
SK-MEL-2 = tested on: SK-MEL-2
NCI/ADR-RES = tested on: NCI/ADR-RES
786-0 = tested on: 786-0
HCC 2998 = tested on: HCC 2998
SR = tested on: SR
ACHN = tested on: ACHN
HOP-62 = tested on: HOP-62
OVCAR-5 = tested on: OVCAR-5
A498 = tested on: A498
BT-549 = tested on: BT-549
OVCAR-4 = tested on: OVCAR-4
MDA-MB-435 = tested on: MDA-MB-435
NCI-H460 = tested on: NCI-H460
U-251 = tested on: U-251
DU-145 = tested on: DU-145
MDA-N = tested on: MDA-N
MCF7 = tested on: MCF7
HOP-92 = tested on: HOP-92
T47D = tested on: T47D
PC-3 = tested on: PC-3
Hs-578T = tested on: Hs-578T
HCT-116 = tested on: HCT-116
LXFL 529 = tested on: LXFL 529
KM-20L2 = tested on: KM-20L2
SNB-78 = tested on: SNB-78

## O=C1N[C@@H]2CCC[C@@H]2[C@@H]1c1ccc(Cl)cc1
TK-10
  GI50: > 100 µM (inactive)
SF-295
  GI50: > 100 µM (inactive)
UACC-257
  GI50: > 100 µM (inactive)
M14
  GI50: > 100 µM (inactive)
MOLT-4
  GI50: > 100 µM (inactive)
DMS-114
  GI50: 70 µM (inactive)
SK-OV-3
  GI50: > 100 µM (inactive)
SK-MEL-28
  GI50: > 100 µM (inactive)
IGROV-1
  GI50: > 100 µM (inactive)
LOX IMVI
  GI50: > 100 µM (inactive)
SK-MEL-5
  GI50: > 100 µM (inactive)
HT-29
  GI50: > 100 µM (inactive)
SF-539
  GI50: > 100 µM (inactive)
EKVX
  GI50: > 100 µM (inactive)
SNB-75
  GI50: > 100 µM (inactive)
K562
  GI50: > 100 µM (inactive)
NCI-H23
  GI50: > 100 µM (inactive)
NCI-H226
  GI50: 87.9 µM (inactive)
SW-620
  GI50: > 100 µM (inactive)
SNB-19
  GI50: > 100 µM (inactive)
CAKI-1
  GI50: > 100 µM (inactive)
OVCAR-8
  GI50: > 100 µM (inactive)
SN12C
  GI50: > 100 µM (inactive)
RXF 393
  GI50: > 100 µM (inactive)
KM12
  GI50: > 100 µM (inactive)
SF-268
  GI50: > 100 µM (inactive)
M19-MEL
  GI50: > 100 µM (inactive)
UACC-62
  GI50: > 100 µM (inactive)
CCRF-CEM
  GI50: > 100 µM (inactive)
COLO 205
  GI50: > 100 µM (inactive)
OVCAR-3
  GI50: > 100 µM (inactive)
HL-60
  GI50: > 100 µM (inactive)
DMS-273
  GI50: > 100 µM (inactive)
A549
  GI50: > 100 µM (inactive)
NCI-H522
  GI50: > 100 µM (inactive)
RPMI-8226
  GI50: > 100 µM (inactive)
UO-31
  GI50: 65.2 µM (inactive)
HCT-15
  GI50: > 100 µM

## O=C1NC(=S)N(c2cccc3ccccc23)C(=O)/C1=C/c1c[nH]c2ccccc12
TK-10
  GI50: 2.67 µM (inactive)
SF-295
  GI50: 3.07 µM (inactive)
UACC-257
  GI50: 2.31 µM (inactive)
M14
  GI50: 1.84 µM (inactive)
MOLT-4
  GI50: 1.87 µM (inactive)
Malme-3M
  GI50: 2.23 µM (inactive)
MDA-MB-231
  GI50: 2.16 µM (inactive)
SK-OV-3
  GI50: 4.02 µM (inactive)
SK-MEL-28
  GI50: 2.26 µM (inactive)
IGROV-1
  GI50: 2.03 µM (inactive)
SK-MEL-2
  GI50: 1.69 µM (inactive)
NCI/ADR-RES
  GI50: 3 µM (inactive)
LOX IMVI
  GI50: 1.82 µM (inactive)
SK-MEL-5
  GI50: 1.66 µM (inactive)
HT-29
  GI50: 2.17 µM (inactive)
SF-539
  GI50: 2.23 µM (inactive)
EKVX
  GI50: 2.06 µM (inactive)
SNB-75
  GI50: 2.43 µM (inactive)
786-0
  GI50: 1.71 µM (inactive)
K562
  GI50: 2.38 µM (inactive)
NCI-H23
  GI50: 1.81 µM (inactive)
NCI-H226
  GI50: 2.42 µM (inactive)
HCC 2998
  GI50: 1.87 µM (inactive)
SR
  GI50: 1.41 µM (inactive)
ACHN
  GI50: 2.37 µM (inactive)
HOP-62
  GI50: 2.83 µM (inactive)
SW-620
  GI50: 2.25 µM (inactive)
SNB-19
  GI50: 3.08 µM (inactive)
CAKI-1
  GI50: 2.54 µM (inactive)
OVCAR-8
  GI50: 2.39 µM (inactive)
SN12C
  GI50: 2.02 µM (inactive)
RXF 393
  GI50: 1.91 µM (inactive)
KM12
  GI50: 2.32 µM (inactive)
OVCAR-5
  GI50: 2.4 µM (inactive)
SF-268
  GI50: 2.64 µM (inactive)
A498
  GI50: 2.05 µM (inactive)
UACC-62
  GI50: 1.7 µM (inactive)
CCRF-CEM
  GI50: 1.76 µM (inactive)
BT-549
  GI50: 1.79 µM (inactive)
COLO 205
  GI50: 1.84 µM (inactive)
OVCAR-4
  GI50: 2.44 µM (inactive)
MDA-MB-435
  GI50: 2.34 µM (inactive)
NCI-H460
  GI50: 2.36 µM (inactive)
U-251
  GI50: 2.22 µM (inactive)
DU-145
  GI50: 1.8 µM (inactive)
MDA-N
  GI50: 2.1 µM (inactive)
MCF7
  GI50: 2.54 µM (inactive)
HOP-92
  GI50: 2.13 µM (inactive)
OVCAR-3
  GI50: 3.38 µM (inactive)
T47D
  GI50: 3.89 µM (inactive)
PC-3
  GI50: 2.36 µM (inactive)
HL-60
  GI50: 2.21 µM (inactive)
Hs-578T
  GI50: 3.52 µM (inactive)
A549
  GI50: 5.12 µM (inactive)
NCI-H522
  GI50: 2.78 µM (inactive)
RPMI-8226
  GI50: 2.02 µM (inactive)
UO-31
  GI50: 2.15 µM (inactive)
HCT-116
  GI50: 2.01 µM (inactive)
HCT-15
  GI50: 1.67 µM

## COc1ccc2c(c1)CC[C@@H]1C2CC[C@]2(C)C(=O)N(N)C(=O)CC12 (some centres not stated)
LXFL 529
  GI50: 52.6 µM (inactive)
SF-295
  GI50: > 100 µM (inactive)
UACC-257
  GI50: 35.6 µM (inactive)
M14
  GI50: 78.3 µM (inactive)
MOLT-4
  GI50: 44.4 µM (inactive)
Malme-3M
  GI50: > 100 µM (inactive)
DMS-114
  GI50: 44.5 µM (inactive)
SK-OV-3
  GI50: > 100 µM (inactive)
SK-MEL-28
  GI50: > 100 µM (inactive)
IGROV-1
  GI50: > 100 µM (inactive)
SK-MEL-2
  GI50: > 100 µM (inactive)
HT-29
  GI50: > 100 µM (inactive)
SNB-75
  GI50: > 100 µM (inactive)
786-0
  GI50: > 100 µM (inactive)
K562
  GI50: 32.6 µM (inactive)
NCI-H23
  GI50: > 100 µM (inactive)
SR
  GI50: 38 µM (inactive)
ACHN
  GI50: > 100 µM (inactive)
HOP-62
  GI50: > 100 µM (inactive)
KM-20L2
  GI50: 32.9 µM (inactive)
SNB-19
  GI50: > 100 µM (inactive)
RXF 393
  GI50: > 10 µM (inactive)
KM12
  GI50: > 100 µM (inactive)
OVCAR-5
  GI50: > 100 µM (inactive)
SF-268
  GI50: > 100 µM (inactive)
SNB-78
  GI50: 77.4 µM (inactive)
M19-MEL
  GI50: > 100 µM (inactive)
A498
  GI50: 35.8 µM (inactive)
UACC-62
  GI50: 80.9 µM (inactive)
CCRF-CEM
  GI50: 80 µM (inactive)
COLO 205
  GI50: > 100 µM (inactive)
OVCAR-4
  GI50: > 100 µM (inactive)
NCI-H460
  GI50: 37.2 µM (inactive)
U-251
  GI50: > 100 µM (inactive)
HOP-92
  GI50: > 100 µM (inactive)
OVCAR-3
  GI50: > 100 µM (inactive)
NCI-H522
  GI50: 48.8 µM (inactive)
RPMI-8226
  GI50: 28.8 µM (inactive)
UO-31
  GI50: 72.9 µM (inactive)
HCT-116
  GI50: > 100 µM (inactive)
